Data published in patent publication US11261186B2, “Biaryl derivative as GPR120 agonist” (LG CHEM, LTD., priority 2014, dated 2022).

Biological target: T1, hGPR120 (Homo sapiens, UniProt Q5NUL3)
T1 construct: expressed in transfected cells; host or cells: CHO-K1
T1 sequence (Q5NUL3 1-361): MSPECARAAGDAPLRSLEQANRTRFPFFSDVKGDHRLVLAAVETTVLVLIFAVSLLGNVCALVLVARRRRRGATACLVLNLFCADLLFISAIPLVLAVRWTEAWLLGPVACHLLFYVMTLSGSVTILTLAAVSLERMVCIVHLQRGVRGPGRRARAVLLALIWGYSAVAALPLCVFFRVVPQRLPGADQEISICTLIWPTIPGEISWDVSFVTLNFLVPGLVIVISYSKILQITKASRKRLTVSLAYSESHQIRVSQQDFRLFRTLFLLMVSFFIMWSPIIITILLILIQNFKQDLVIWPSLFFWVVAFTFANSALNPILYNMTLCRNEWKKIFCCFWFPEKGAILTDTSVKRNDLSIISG
Assay: Measurement of Activity of GPR120 Agonist (Cell-Based Assay), Calcium 5 dye fluorescence
Details: CHO-K1 cells expressing Ga16 and hGPR120
Procedure, shortened: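 Gα16/hGPR120 CHO-K1; 18 h plating, 37 °C, 5% CO2; Calcium 5 dye load 1 h; agonist serial dilution, 0.5% DMSO final; fluor Ex485/Em525; response as % of 1% DMSO vehicle.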

SMILES | EC50
O=C(O)C1CC1CNc1ccc(-c2cccnc2SC2CCCC2)cc1 (centres unmarked) [Example 211, 2-{[4-(2-cyclopentylsulfanyl-pyridin-3-yl)-phenylamino]-methyl}-cyclopropanecarboxylic acid] | 200 to 2000 nM
CC(C)Sc1ncccc1-c1ccc(N(C)CCCC(=O)O)c(F)c1 [Example 212, 4-{[2-fluoro-4-(2-isopropylsulfanyl-pyridin-3-yl)-phenyl]-methyl-amino}-butyric acid] | < 200 nM
CN(CCCC(=O)O)c1ccc(-c2cccnc2SC2CCCC2)cc1F [Example 213, 4-{[4-(2-cyclopentylsulfanyl-pyridin-3-yl)-2-fluoro-phenyl]-methyl-amino}-butyric acid] | < 200 nM
CC(C)Oc1ncccc1-c1cc(F)c(N(C)CCCC(=O)O)c(F)c1 [Example 214, 4-{[2,6-difluoro-4-(2-isopropoxy-pyridin-3-yl)-phenyl]-methyl-amino}-butyric acid] | 200 to 2000 nM
CN(CCCC(=O)O)c1c(F)cc(-c2ccccc2NC2CCCC2)cc1F [Example 215, 4-[(2′-cyclopentylamino-3,5-difluoro-biphenyl-4-yl)-methyl-amino]-butyric acid] | < 200 nM
CC(C)Oc1ccc(F)cc1-c1cc(F)c(N(C)CCCC(=O)O)c(F)c1 [Example 216, 4-[methyl-(3,5,5′-trifluoro-2′-isopropoxy-biphenyl-4-yl)-amino]-butyric acid] | < 200 nM
Cc1cnc(OC2CCCC2)c(-c2cc(F)c(N(C)CCCC(=O)O)c(F)c2)c1 [Example 217, 4-{[4-(2-cyclopentyloxy-5-methyl-pyridin-3-yl)-2,6-difluoro-phenyl]-methyl-amino}-butyric acid] | < 200 nM
CN(CCCC(=O)O)c1c(F)cc(-c2cccnc2OCC2CCC2)cc1F [Example 218, 4-{[4-(2-cyclobutylmethoxy-pyridin-3-yl)-2,6-difluoro-phenyl]-methyl-amino}-butyric acid] | < 200 nM
COc1ncccc1-c1cc(F)c(N(C)CCCC(=O)O)c(F)c1 [Example 219, 4-{[2,6-difluoro-4-(2-methoxy-pyridin-3-yl)-phenyl]-methyl-amino}-butyric acid] | 2000 to 20000 nM
CN(CCCC(=O)O)c1c(F)cc(-c2ccccc2N2CCCC2)cc1F [Example 221, 4-[(3,5-difluoro-2′-pyrrolidin-1-yl-biphenyl-4-yl)-methyl-amino]-butyric acid] | < 200 nM
CNc1ccccc1-c1cc(F)c(N(C)CCCC(=O)O)c(F)c1 [Example 222, 4-[(3,5-difluoro-2′-methylamino-biphenyl-4-yl)-methyl-amino]-butyric acid] | 200 to 2000 nM
CC(C)N(C)c1ccccc1-c1cc(F)c(N(C)CCCC(=O)O)c(F)c1 [Example 223, 4-{[3,5-difluoro-2′-(isopropyl-methyl-amino)-biphenyl-4-yl]-methyl-amino}-butyric acid] | < 200 nM
CCN(CCCC(=O)O)c1c(F)cc(-c2cccnc2SC2CCC2)cc1F [Example 224, 4-{[4-(2-cyclobutylsulfanyl-pyridin-3-yl)-2,6-difluoro-phenyl]-ethyl-amino}-butyric acid] | 200 to 2000 nM
CCN(CCCC(=O)O)c1c(F)cc(-c2cccnc2OCC2CCC2)cc1F [Example 225, 4-{[4-(2-cyclobutylmethoxy-pyridin-3-yl)-2,6-difluoro-phenyl]-ethyl-amino}-butyric acid] | 200 to 2000 nM
CCN(CCCC(=O)O)c1c(F)cc(-c2cccnc2OC(C)C)cc1F [Example 226, 4-{[2,6-difluoro-4-(2-isopropoxy-pyridin-3-yl)-phenyl]-ethyl-amino}-butyric acid] | 200 to 2000 nM
C[C@H](CCCC(=O)O)c1c(F)cc(-c2cccnc2SC2CCC2)cc1F [Example 227, (R)-5-[4-(2-cyclobutylsulfanyl-pyridin-3-yl)-2,6-difluoro-phenyl]-hexanoic acid] | < 200 nM
C[C@H](C/C=C/C(=O)O)c1c(F)cc(-c2cccnc2SC2CCC2)cc1F [Example 228, (E)-(R)-5-[4-(2-cyclobutylsulfanyl-pyridin-3-yl)-2,6-difluoro-phenyl]-hex-2-enoic acid] | < 200 nM
C[C@@H](CCCC(=O)O)c1c(F)cc(-c2cccnc2SC2CCC2)cc1F [Example 229, (S)-5-[4-(2-cyclobutylsulfanyl-pyridin-3-yl)-2,6-difluoro-phenyl]-hexanoic acid] | < 200 nM
CC(CCCC(=O)O)c1c(F)cc(-c2cccnc2OC2CCOC2)cc1F (centres unmarked) [Example 230, 5-{2,6-difluoro-4-[2-(tetrahydro-furan-3-yloxy)-pyridin-3-yl]-phenyl}-hexanoic acid] | < 200 nM
CC(CCCC(=O)O)c1c(F)cc(-c2cccnc2OC2CCOCC2)cc1F (centres unmarked) [Example 231, 5-{2,6-difluoro-4-[2-(tetrahydro-pyran-4-yloxy)-pyridin-3-yl]-phenyl}-hexanoic acid] | < 200 nM
CC(CCCC(=O)O)c1c(F)cc(-c2cccnc2OC2COC2)cc1F (centres unmarked) [Example 232, 5-{2,6-difluoro-4-[2-(oxetan-3-yloxy)-pyridin-3-yl]-phenyl}-hexanoic acid] | 200 to 2000 nM

SMILES | EC50
O=C(O)CCCOc1ccc(-c2cccnc2OC2CCC2)cc1F [Example 233, 4-[4-(2-cyclobutoxy-pyridin-3-yl)-2-fluoro-phenoxy]-butyric acid] | 200 to 2000 nM
O=C(O)CCCOc1ccc(-c2cccnc2OC2CCCC2)cc1F [Example 234, 4-[4-(2-cyclopentyloxy-pyridin-3-yl)-2-fluoro-phenoxy]-butyric acid] | < 200 nM
O=C(O)CCCOc1ccc(-c2cccnc2SC2CCC2)cc1F [Example 235, 4-[4-(2-cyclobutylsulfanyl-pyridin-3-yl)-2-fluoro-phenoxy]-butyric acid] | < 200 nM
O=C(O)CCCOc1ccc(-c2cccnc2SC2CCCC2)cc1F [Example 236, 4-[4-(2-cyclopentylsulfanyl-pyridin-3-yl)-2-fluoro-phenoxy]-butyric acid] | < 200 nM
CC(CCCCC(=O)O)c1c(F)cc(-c2cccnc2OC2CCCC2)cc1F (centres unmarked) [Example 237, 6-[4-(2-cyclopentyloxy-pyridin-3-yl)-2,6-difluoro-phenyl]-heptanoic acid] | < 200 nM
CC(CCCCC(=O)O)c1c(F)cc(-c2cccnc2SC2CCCC2)cc1F (centres unmarked) [Example 238, 6-[4-(2-cyclopentylsulfanyl-pyridin-3-yl)-2,6-difluoro-phenyl]-heptanoic acid] | < 200 nM
O=C(O)CCCSc1ccc(-c2cccnc2OCC2CC2)cc1F [Example 239, 4-[4-(2-cyclopropylmethoxy-pyridin-3-yl)-2-fluoro-phenylsulfanyl]-butyric acid] | < 200 nM
O=C(O)CCCOc1ccc(-c2cccnc2OCC2CC2)cc1F [Example 240, 4-[4-(2-cyclopropylmethoxy-pyridin-3-yl)-2-fluoro-phenoxy]-butyric acid] | 200 to 2000 nM
O=C(O)CCCOc1ccc(-c2cccnc2OCC2CCC2)cc1F [Example 241, 4-[4-(2-cyclobutylmethoxy-pyridin-3-yl)-2-fluoro-phenoxy]-butyric acid] | < 200 nM
O=C(O)CCCCc1ccc(-c2cccnc2OC2CCCC2)cc1F [Example 244, 5-[4-(2-cyclopentyloxy-pyridin-3-yl)-2-fluoro-phenyl]-pentanoic acid] | < 200 nM
O=C(O)CCCCc1ccc(-c2cccnc2OC2CCC2)cc1F [Example 245, 5-[4-(2-cyclobutoxy-pyridin-3-yl)-2-fluoro-phenyl]-pentanoic acid] | < 200 nM
O=C(O)CCCCc1ccc(-c2cccnc2OCC2CCC2)cc1F [Example 246, 5-[4-(2-cyclobutylmethoxy-pyridin-3-yl)-2-fluoro-phenyl]-pentanoic acid] | < 200 nM
O=C(O)CCCCc1ccc(-c2cccnc2OCC2CC2)cc1F [Example 247, 5-[4-(2-cyclopropylmethoxy-pyridin-3-yl)-2-fluoro-phenyl]-pentanoic acid] | < 200 nM
O=C(O)CCCCc1ccc(-c2cccnc2SC2CCCC2)cc1F [Example 248, 5-[4-(2-cyclopentylsulfanyl-pyridin-3-yl)-2-fluoro-phenyl]-pentanoic acid] | < 200 nM
O=C(O)CCCCc1ccc(-c2cccnc2SC2CCC2)cc1F [Example 249, 5-[4-(2-cyclobutylsulfanyl-pyridin-3-yl)-2-fluoro-phenyl]-pentanoic acid] | < 200 nM
O=C(O)CCCCc1c(F)cc(-c2cccnc2OCC2CCC2)cc1F [Example 250, 5-[4-(2-cyclobutylmethoxy-pyridin-3-yl)-2,6-difluoro-phenyl]-pentanoic acid] | < 200 nM
O=C(O)CCCCc1c(F)cc(-c2cccnc2OC2CCC2)cc1F [Example 251, 5-[4-(2-cyclobutoxy-pyridin-3-yl)-2,6-difluoro-phenyl]-pentanoic acid] | < 200 nM
O=C(O)CCCCc1c(F)cc(-c2cccnc2OCC2CC2)cc1F [Example 252, 5-[4-(2-cyclopropylmethoxy-pyridin-3-yl)-2,6-difluoro-phenyl]-pentanoic acid] | < 200 nM
CC1(C)Cc2cc(Cl)cc(-c3cc(F)c(OCCCC(=O)O)c(F)c3)c2O1 [Example 253, 4-[4-(5-chloro-2,2-dimethyl-2,3-dihydro-benzofuran-7-yl)-2,6-difluoro-phenoxy]-butyric acid] | 200 to 2000 nM
CC1(C)Cc2cc(Cl)cc(-c3cc(F)c(SCCCC(=O)O)c(F)c3)c2O1 [Example 254, 4-[4-(5-chloro-2,2-dimethyl-2,3-dihydro-benzofuran-7-yl)-2,6-difluoro-phenylsulfanyl]-butyric acid] | 200 to 2000 nM
